We go through three compounds from US20140296288A1, “IMINO-SUGAR C-GLYCOSIDES, PREPARATION AND USE THEREOF” (UNIVERSITE PIERRE ET MARIE CURIE (PARIS 6), priority 2011, published 2014).

Read-outs that look alike come from different tables or passages of the source.

Test [1] concerns β-N-acetyl hexosaminidase. Briefly: In vitro glycosidase inhibition, β-N-acetyl hexosaminidase (human placenta). Type of test: biochemical. The note with it: for selectivity of inhibitory activity towards β-N-acetyl hexosaminidase: versus the other glycosidases of Table 1; for IC50: β-N-acetyl hexosaminidase, human placenta. The protocol: (§1) All glycosidases and p-nitrophenyl glycosides were purchased from Sigma-Aldrich Co. The enzyme assays were performed according to the methods described in Kato, A.; Miyauchi, S.; Kato, N.; Nash, R. J.; Yoshimura, Y.; Nakagome, I.; Hirono, S.; Takahata, H.; Adachi, I. Bioorg. Med. Chem. 19, 3558-3568, 2011. The activities were determined using an appropriate p-nitrophenyl glycoside as substrate at the optimum pH of each enzyme. The reaction mixture contained 2 mM of the substrate and the appropriate amount of enzyme. The reaction was stopped by adding 2 mL of 400 mM Na2CO3. The released p-nitrophenol was measured spectrometrically at 400 nm.

Test [2] addresses β-glucosidase. In words: In vitro glycosidase inhibition, β-glucosidase (bovine liver). Type of test: biochemical. The protocol:
as §1

For test [3], the target named is β-N-acetyl hexosaminidase. Briefly: In vitro glycosidase inhibition, β-N-acetyl hexosaminidase (bovine kidney). Type of test: biochemical. The protocol: as §1
The next test deals with T1, α-galactosidase (Coffea arabica, UniProt Q42656).
T1 construct: purchased Sigma-Aldrich Co
T1 sequence (Q42656 16-378): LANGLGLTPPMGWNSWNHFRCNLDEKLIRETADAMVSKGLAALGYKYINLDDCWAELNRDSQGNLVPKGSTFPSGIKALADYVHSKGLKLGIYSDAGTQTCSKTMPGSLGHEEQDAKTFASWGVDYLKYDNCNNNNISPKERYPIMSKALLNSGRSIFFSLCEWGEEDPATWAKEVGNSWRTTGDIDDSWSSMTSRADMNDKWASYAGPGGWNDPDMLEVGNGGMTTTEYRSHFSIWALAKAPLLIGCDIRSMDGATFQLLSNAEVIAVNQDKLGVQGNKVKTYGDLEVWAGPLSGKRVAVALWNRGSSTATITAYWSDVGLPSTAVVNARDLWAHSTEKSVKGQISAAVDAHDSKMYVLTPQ
In words: In vitro glycosidase inhibition, α-galactosidase (coffee beans). Type of test: biochemical. As for the experimental part: as §1

Test [4] addresses β-glucosidase. Briefly: In vitro glycosidase inhibition, β-glucosidase (almond). Type of test: biochemical. As for the experimental part: as §1
The target of a further test is β-mannosidase. Briefly: In vitro glycosidase inhibition, β-mannosidase (snail). Type of test: biochemical. The protocol:
as §1

The next test addresses rat intestinal maltase. In words: In vitro glycosidase inhibition, α-glucosidase (rat intestinal maltase). Type of test: biochemical. The protocol: as §1
Another test addresses T2, α-mannosidase (Canavalia ensiformis, UniProt C0HJB3).
T2 construct: purchased Sigma-Aldrich Co
T2 sequence (C0HJB3 1-981): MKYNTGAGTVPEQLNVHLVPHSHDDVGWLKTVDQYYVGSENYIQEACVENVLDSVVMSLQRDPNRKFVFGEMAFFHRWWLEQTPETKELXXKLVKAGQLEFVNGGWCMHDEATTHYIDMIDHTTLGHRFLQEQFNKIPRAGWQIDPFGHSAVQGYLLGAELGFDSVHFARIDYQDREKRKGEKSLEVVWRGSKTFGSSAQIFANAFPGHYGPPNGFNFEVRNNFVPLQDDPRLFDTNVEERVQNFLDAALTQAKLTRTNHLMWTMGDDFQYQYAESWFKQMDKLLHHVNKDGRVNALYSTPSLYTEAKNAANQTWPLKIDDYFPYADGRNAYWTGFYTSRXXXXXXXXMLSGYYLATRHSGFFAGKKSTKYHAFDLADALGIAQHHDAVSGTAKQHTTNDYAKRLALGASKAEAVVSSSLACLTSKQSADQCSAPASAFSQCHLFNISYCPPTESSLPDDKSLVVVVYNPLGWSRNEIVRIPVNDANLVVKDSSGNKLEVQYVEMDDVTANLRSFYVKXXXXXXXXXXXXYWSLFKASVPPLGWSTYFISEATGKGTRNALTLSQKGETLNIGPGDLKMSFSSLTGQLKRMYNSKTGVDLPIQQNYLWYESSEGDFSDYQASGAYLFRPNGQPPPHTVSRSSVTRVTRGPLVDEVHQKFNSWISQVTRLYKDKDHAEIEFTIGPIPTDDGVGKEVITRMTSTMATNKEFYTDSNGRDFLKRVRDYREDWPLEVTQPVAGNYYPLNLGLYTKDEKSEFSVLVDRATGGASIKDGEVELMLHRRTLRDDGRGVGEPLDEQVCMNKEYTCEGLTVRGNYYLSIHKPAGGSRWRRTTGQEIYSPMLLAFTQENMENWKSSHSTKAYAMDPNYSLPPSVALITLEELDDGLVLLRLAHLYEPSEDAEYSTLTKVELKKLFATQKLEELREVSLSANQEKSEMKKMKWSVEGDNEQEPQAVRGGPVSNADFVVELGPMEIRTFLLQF
In words: In vitro glycosidase inhibition, α-mannosidase (jack beans). It counts as biochemical. The protocol: as §1

In test [5] the target is T3, α-glucosidase (Oryza sativa subsp. japonica, UniProt Q653V7).
T3 construct: purchased Sigma-Aldrich Co
T3 sequence (Q653V7 34-885): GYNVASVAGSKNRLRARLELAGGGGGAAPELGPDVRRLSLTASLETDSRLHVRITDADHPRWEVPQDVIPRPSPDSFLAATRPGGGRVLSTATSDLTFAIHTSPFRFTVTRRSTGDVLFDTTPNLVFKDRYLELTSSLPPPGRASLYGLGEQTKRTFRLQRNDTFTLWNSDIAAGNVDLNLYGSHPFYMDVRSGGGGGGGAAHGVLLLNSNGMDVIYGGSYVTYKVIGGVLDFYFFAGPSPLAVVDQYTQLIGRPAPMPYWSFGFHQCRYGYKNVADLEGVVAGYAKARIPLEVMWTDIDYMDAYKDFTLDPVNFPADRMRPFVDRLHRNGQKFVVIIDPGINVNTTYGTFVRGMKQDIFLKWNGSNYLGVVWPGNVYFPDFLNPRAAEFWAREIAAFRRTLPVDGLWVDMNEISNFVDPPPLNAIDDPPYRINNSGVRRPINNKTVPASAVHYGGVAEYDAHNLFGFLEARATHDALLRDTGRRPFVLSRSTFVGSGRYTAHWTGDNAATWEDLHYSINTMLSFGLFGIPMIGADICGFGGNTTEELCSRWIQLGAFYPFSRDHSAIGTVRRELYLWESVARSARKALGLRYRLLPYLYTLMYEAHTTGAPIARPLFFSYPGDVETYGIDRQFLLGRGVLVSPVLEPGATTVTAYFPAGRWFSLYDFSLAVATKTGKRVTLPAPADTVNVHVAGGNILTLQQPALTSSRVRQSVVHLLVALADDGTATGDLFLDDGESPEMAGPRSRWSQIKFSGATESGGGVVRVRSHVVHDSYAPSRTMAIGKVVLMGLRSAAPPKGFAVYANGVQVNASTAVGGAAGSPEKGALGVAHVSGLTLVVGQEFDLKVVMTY
In words: In vitro glycosidase inhibition, α-glucosidase (rice). Type of test: biochemical. The protocol: as §1

Test [6] concerns the target T4, α-glucosidase (Saccharomyces cerevisiae, UniProt P53341).
T4 construct: purchased Sigma-Aldrich Co
Briefly: In vitro glycosidase inhibition, α-glucosidase (yeast). It counts as biochemical. As for the experimental part: as §1

The next test concerns β-galactosidase. Briefly: In vitro glycosidase inhibition, β-galactosidase (bovine liver). It counts as biochemical. The protocol: as §1
Test [7] concerns the target T5, α-N-acetyl galactosaminidase (Gallus gallus, UniProt Q90744).
T5 construct: purchased Sigma-Aldrich Co; host or cells: chicken liver
T5 sequence (Q90744 1-405): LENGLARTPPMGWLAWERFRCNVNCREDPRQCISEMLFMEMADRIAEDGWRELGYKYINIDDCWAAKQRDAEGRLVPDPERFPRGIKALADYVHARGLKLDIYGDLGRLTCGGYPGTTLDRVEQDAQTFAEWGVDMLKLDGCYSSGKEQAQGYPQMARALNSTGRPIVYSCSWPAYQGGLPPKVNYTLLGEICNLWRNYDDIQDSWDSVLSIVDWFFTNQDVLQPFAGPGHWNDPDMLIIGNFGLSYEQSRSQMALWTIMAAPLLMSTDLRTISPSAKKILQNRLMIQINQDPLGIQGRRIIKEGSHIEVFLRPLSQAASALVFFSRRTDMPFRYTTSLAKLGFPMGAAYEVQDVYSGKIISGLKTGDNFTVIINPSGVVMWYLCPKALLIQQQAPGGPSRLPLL
In words: In vitro glycosidase inhibition, α-N-acetyl galactosaminidase (chicken liver). Type of test: biochemical. As for the experimental part:
as §1

Test [8] concerns α-N-acetylglucosaminidase (NAGLU). Briefly: Enzyme activation assay, MPS IIIB fibroblasts GM01426. It counts as cell-based, human. The note with it: 3 days, 0-10 μM. As for the experimental part: (§2) Compounds (1) and (B) (compound (B) is described in A. Vasella, Helvetica Chimica Acta, 1998, 865) were tested in 3 Sanfillipo patient-derived fibroblast cell lines, named as MPS IIIB fibroblast cells lines below.
(§3) MPS IIIB fibroblasts (GM01426, GM02931 and GM00737) were cultured in the presence of various concentrations of compounds (1) and (B) (0-10 μM) for 3 days before α-N-acetylglucosaminidase (NAGLU) activity was measured in cell homogenates using 4-methylumbelliferyl-α-N-acetylglucosamine (4-MU-α-GlcNAc) as substrate. Cells were washed twice in phosphate buffered saline, homogenised in water using a small dounce homogeniser, centrifuged at 800 g for 5 min and the supernatant taken for protein and enzyme activity. Protein concentration was determined using the BCA assay (Pierce, UK) according to manufacturer's instructions. An aliquot, (5 μl) of homogenate was added to a well of a 96-well plate containing 10 μl 2 mM 4-MU substrate (in water) and 5 μl 0.2 M sodium acetate buffer, pH 4.3. Following incubation for 3-4 h at 37° C. in a humidified incubator, the reaction was stopped by adding 300 μl 0.5 M glycine/NaOH, pH 10.3 and the fluorescence measured at 460 nm using an excitation wavelength of 350 nm, em 460 nm. Enzyme activation is defined as the fold increase in fluorescence due to enzyme activity (FU/μg protein) in treated cells compared to untreated cells. […]

For test [9] the test system is unchanged. In words: Enzyme activation assay, MPS IIIB fibroblasts GM00737. It counts as cell-based, human. As to conditions: 3 days, 0-10 μM. As for the experimental part: as §2, §3
Test [10] shares this test system. Briefly: Enzyme activation assay, MPS IIIB fibroblasts GM02931. Type of test: cell-based, human. As to conditions: 3 days, 0-10 μM. As for the experimental part:
as §2, §3

Where [11] appears, read: 1000 μM, read-out: % of inhibition at 1000 μM.
Setting [12] is: read-out: % of inhibition at 1000 μM.

T4 sequence (P53341 whole entry): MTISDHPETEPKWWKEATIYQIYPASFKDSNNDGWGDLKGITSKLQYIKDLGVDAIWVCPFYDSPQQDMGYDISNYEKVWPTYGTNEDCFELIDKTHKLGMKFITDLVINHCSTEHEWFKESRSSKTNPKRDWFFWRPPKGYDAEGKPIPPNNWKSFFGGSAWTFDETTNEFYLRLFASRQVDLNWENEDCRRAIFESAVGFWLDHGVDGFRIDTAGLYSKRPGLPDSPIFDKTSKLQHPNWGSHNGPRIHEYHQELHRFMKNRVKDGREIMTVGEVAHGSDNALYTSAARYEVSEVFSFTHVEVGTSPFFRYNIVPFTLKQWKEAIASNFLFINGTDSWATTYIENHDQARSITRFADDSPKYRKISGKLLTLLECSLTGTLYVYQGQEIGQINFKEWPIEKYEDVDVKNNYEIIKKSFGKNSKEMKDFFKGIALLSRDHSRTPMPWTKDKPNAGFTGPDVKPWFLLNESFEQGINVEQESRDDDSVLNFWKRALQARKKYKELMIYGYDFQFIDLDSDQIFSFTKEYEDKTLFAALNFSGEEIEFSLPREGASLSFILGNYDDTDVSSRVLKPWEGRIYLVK

Usually IC50 stands for the point on the concentration scale where inhibition reaches its midpoint. For `CC(=O)N[C@@H]1[C@@H](O)[C@H](O)[C@@H](CO)N[C@H]1CO` [1′, N-((2R,3R,4R,5S,6R)-3,4-dihydroxy-2,6-bis(hydroxymethyl)piperidin-5-yl)acetamide], in test [1], the “selectivity of inhibitory activity towards β-N-acetyl hexosaminidase” value is “selective inhibitory activity”. Moreover, the IC50 in [1] was 72 µM; against β-glucosidase [2], “NI (No Inhibition (less than 50% inhibition at 1000 μM))”; in test [3], 65 µM; against β-glucosidase [4] it was “NI (No Inhibition (less than 50% inhibition at 1000 μM))”; on β-mannosidase, “NI (No Inhibition (less than 50% inhibition at 1000 μM))”; on rat intestinal maltase it was “NI (No Inhibition (less than 50% inhibition at 1000 μM))”. Also, the “% of inhibition at 1000 μM” value in the test on β-glucosidase [2] was 15.5%; with β-glucosidase [4], 18.3%; with β-mannosidase, 0%; with rat intestinal maltase, 1.3%; with β-galactosidase, 5.7%. Moreover, the inhibition at 1000 µM on α-galactosidase (setting [11]) was 13.1%; at α-galactosidase (read-out: IC50), less than 50%; on α-mannosidase (setting [11]) it was 0%; on α-mannosidase (read-out: IC50) it was less than 50%; on α-glucosidase [5] (setting [11]), 15.9%; at α-glucosidase [5] (read-out: IC50), less than 50%. The inhibition at 1000 µM was 15.4% at α-glucosidase [6] (setting [12]); less than 50% at α-glucosidase [6] (α-glucosidase, yeast, read-out: IC50); 42.7% in [7] (setting [11]); less than 50% in [7] (read-out: IC50).
With `CC(=O)N[C@@H]1[C@@H](O)[C@H](O)[C@@H](CO)N[C@@H]1CO` [Compound 1, N-((2R,3R,4R,5S,6S)-3,4-dihydroxy-2,6-bis(hydroxymethyl)piperidin-5-yl)acetamide], in test [1], the “selectivity of inhibitory activity towards β-N-acetyl hexosaminidase” value is “selective inhibitory activity”. Besides, the half-inhibitory concentration (IC50) is 56 µM in test [1]; “NI (No Inhibition (less than 50% inhibition at 1000 μM))” against β-glucosidase [2]; 67 µM in [3]; “NI (No Inhibition (less than 50% inhibition at 1000 μM))” on β-glucosidase [4]; “NI (No Inhibition (less than 50% inhibition at 1000 μM))” on β-mannosidase; “NI (No Inhibition (less than 50% inhibition at 1000 μM))” against rat intestinal maltase. Moreover, the “% of inhibition at 1000 μM” value in the test with β-glucosidase [2] was 4.4%; with β-glucosidase [4], 5.0%; in the test on β-mannosidase, 1.9%; with rat intestinal maltase it was 26.7%; in the test on β-galactosidase, 5.0%. Also, the inhibition at 1000 µM is 19.7% at α-galactosidase (setting [11]); less than 50% at α-galactosidase (read-out: IC50); 2.3% on α-mannosidase (setting [11]); less than 50% at α-mannosidase (read-out: IC50); 32.3% on α-glucosidase [5] (setting [11]); less than 50% at α-glucosidase [5] (read-out: IC50). Further, the inhibition at 1000 µM on α-glucosidase [6] (setting [12]) is 18.5%; on α-glucosidase [6] (read-out: IC50), less than 50%; in [7] (setting [11]) it was 42.4%; in test [7] (read-out: IC50), less than 50%.
On to “N-((2R,3R,4R,5S,6S)-3,4-dihydroxy-2,6-bis(hydroxymethyl)piperidin-5-yl)acetamide [Compound 1]”, for which the “NAGLU enzyme activation, result in words” value in [8] was “concentration dependent increase up to 1 μM”; in [9] it was “activation at lower concentrations”; in [10], “activation at lower concentrations”. Further, the “NAGLU enzyme activation (fold increase in FU/μg protein vs untreated cells)” value in test [8] (best activation seen) was 2.4 fold.
